Data published in the NIST ThermoML archive (doi:10.1021/je400544h).
Numbers after ± are expanded uncertainties. Each block holds one compound with its values, some of them ahead of it.

Conditions: Liquid, Ebulliometric method (Recirculating still)

- vapor or sublimation pressure (319.15 K): 101.3 ± 2 kPa
Structure (SMILES): FC(F)(F)C(Cl)(Cl)Cl [1,1,1-trichloro-2,2,2-trifluoroethane]

Structure (SMILES): CC(C)=O [acetone]
- vapor or sublimation pressure (329.37 K): 101.3 ± 1.8 kPa

- vapor or sublimation pressure (351.45 K): 101.3 ± 1.8 kPa
Structure (SMILES): CCO [ethanol]

Structure (SMILES): O=S(=O)(Cl)Cl [sulfuryl chloride]
- vapor or sublimation pressure (342.6 K): 101.3 ± 2 kPa
